Measured values from patent US20250034161A1, “SPIROCYCLIC COMPOUND AS KRAS-G12C INHIBITOR” (Shanghai Euregen Biopharma Co., Ltd., priority 2020, published 2025).
pIC50: −log10 of the molar value.

Key:
[1] = Pharmacokinetic properties in rats (IV and PO, LC-MS/MS); assay type: in vivo; details: for F: SD rats; for AUC(0-inf) / Cmax / clearance / half-life / Vd: male, Sprague-Dawley (SD), rat, plasma; for Vd: read-out: Vz
Description: • 1. Test purpose: to determine the pharmacokinetic characteristics of some of the example compound of the present invention in SD rats after single intravenous injection(IV) and oral administration(PO) by LC-MS/MS method. • 2. […] Animal production license number (SCXK (Shanghai) 2018-0006). • 3. Test method:
Preparation of 0.5% methyl cellulose: 5 g of methyl cellulose were weighed and dissolved in 1000 mL of purified water.
Preparation of oral formulation: A required amount of test compound was weighed and dissolved in 0.5% methyl cellulose solution to obtain a suspension or solution of 0.5 mg/mL.
Preparation of intravenous injection formulation: A required amount of test compound was weighed, and dissolved in 0.5 mL of dimethyl sulfoxide to prepare a solution of 4 mg/mL. 0.25 mL of the above solution was added into 0.5 mL of polyethylene glycol 15 hydroxystearate (solutol) and 4.25 mL of normal saline to obtain a solution of 0.2 mg/mL.
The dosage and volume administered were shown in the table below Feeding, 4 hours after administration
Sample Collection: blood is collected through jugular vein or other suitable vein, and 0.2 mL of blood was collected at each time point. Samples were placed into tubes containing ethylenediaminetetraacetic acid dipotassium salt and kept on ice before centrifugation. Within 1 hour after blood collection, the blood samples were centrifuged at 2-8° C. and 6800 g for 6 minutes and stored at −80° C. The time point for blood collection was 0.083, 0.25, 0.5, 1, 2, 4, 8 and 24 hours after intravenous administration, and 0.25, 0.5, 1, 2, 4, 6, 8 and 24 hours after oral administration.

[2] = Whole blood stability assay, rat whole blood; assay type: in vitro ADME; details: 37° C.
Description: • 1. Test purpose: to determine the whole blood stability of the compounds by monitoring the clearance rate of the parent compound after incubation of some of the example compounds of the invention with dog and rat whole blood. • 2. […] Test method:
Then, the stock solution of the test compound was diluted to 1 mmol/L and 0.2 mmol/L with 70% acetonitrile aqueous solution, respectively, as working solution.
The working solution was added to the whole blood. The concentration of each test compound was 5 μmol/L. 90 μL was taken and then mixed evenly with 90 μL of water. Then 600 μL of acetonitrile termination solution containing propranolol as internal standard was added. Incubated at 37° C. in a water bath and shook gently. At 30, 60, 120 and 240 minutes, 90 μL of each mixture was placed on a clean 96-well plate prefilled with 90 μL of water, mixed well, and then 600 μL of acetonitrile termination solution containing propranolol as internal standard was added and centrifuged at 5000 g for 15 min. 80 μL of the supernatant was taken and placed in a 96-well plate preloaded with 160 μL of ultrapure water, then analyzed by LC-MS/MS.

CYP 2C19 = CYP 2C19 (Homo sapiens, UniProt P33261); assay: CYP inhibition test, human liver microsomes, CYP2C19
Sequence of CYP 2C19 (P33261 whole entry): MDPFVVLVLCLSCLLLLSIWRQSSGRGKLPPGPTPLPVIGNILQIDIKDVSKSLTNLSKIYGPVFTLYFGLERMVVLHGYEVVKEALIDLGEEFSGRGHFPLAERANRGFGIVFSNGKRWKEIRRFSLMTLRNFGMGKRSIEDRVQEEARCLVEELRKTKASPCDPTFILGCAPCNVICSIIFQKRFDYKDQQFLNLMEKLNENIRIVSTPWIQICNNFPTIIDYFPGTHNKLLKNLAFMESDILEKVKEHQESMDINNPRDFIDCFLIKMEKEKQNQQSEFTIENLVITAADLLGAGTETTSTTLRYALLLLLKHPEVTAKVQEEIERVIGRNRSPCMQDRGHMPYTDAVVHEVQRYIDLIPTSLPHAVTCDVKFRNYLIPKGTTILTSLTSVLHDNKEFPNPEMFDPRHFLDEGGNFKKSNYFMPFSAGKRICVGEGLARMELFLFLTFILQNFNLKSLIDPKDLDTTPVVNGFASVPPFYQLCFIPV
Description: • 1. Test purpose: to evaluate the inhibitory ability of some of the example compounds of the present invention against CYP1A2, 2B6, 2C8, 2C9, 2C19, 2D6 and 3A4 via human liver microsomes. • 2. […] Test method:
• 1. K/Mg buffer: the components were 0.1 mol/L potassium phosphate and 5 mmol/L magnesium chloride with pH 7.4±0.1, preheated. • 2. Solution of the test compound: the test compound was dissolved in dimethyl sulfoxide to prepare a stock solution of 10 mmol/L. 8 μL of 10 mmol/L stock solution was transferred to a 96-well plate containing 12 μL of acetonitrile as the highest concentration point, at 3-fold dilution, for 8 concentrations. • 3. NADPH solution: 66.7 mg of NADPH was dissolved in 10 mL of 0.1 mol/L K/Mg buffer to obtain 8 mmol/L NADPH solution with pH 7.4. • 4. Human liver microsomal stock solution: human liver microsomes were dissolved in 0.1 mol/L K/Mg buffer to obtain 20 mg/mL stock solution. • 5. Human liver microsomal working solution: 10 μL of 20 mg/mL human liver microsomal stock solution was taken and added into 990 μL of 0.1 mol/L K/Mg buffer to prepare 0.2 mg/mL human liver microsomal solution. • 6. […]

Structure (SMILES)	F ([1]; oral gavage, 5 mg/kg) [%]	AUC(0-inf) ([1]; intravenous injection, 1 mg/kg) [ng·h/mL]	Cmax ([1]; intravenous injection, 1 mg/kg) [ng/mL]	clearance ([1]; intravenous injection, 1 mg/kg) [mL/min/kg]	half-life ([1]; intravenous injection, 1 mg/kg) [h]	Vd ([1]; intravenous injection, 1 mg/kg) [L/kg]	AUC(0-inf) ([1]; oral gavage, 5 mg/kg) [ng·h/mL]	Cmax ([1]; oral gavage, 5 mg/kg) [ng/mL]	half-life ([1]; oral gavage, 5 mg/kg) [h]	half-life at 5 μmol/L [2] [h]	pIC50 (CYP 2C19)
C=CC(=O)N1CCN(c2nc(=O)n(-c3c(C)ccnc3C(C)C)c3nc(-c4c(O)cccc4F)c(F)cc23)[C@@H](C)C1 [AMG510]	35.41	319	762	50.7	0.36	1.57	584	1260	1.81	1.85	< 5.00
C=C(F)C(=O)N1CCN(c2nc(OC[C@@H]3CCCN3C)nc3c2CCN(c2cccc4cccc(Cl)c24)C3)C[C@@H]1CC#N [MRTX849]	13.66	348	137	48.1	3.16	13.1	238	23.3	2.8	13.1	< 5.00
